# From EP4548976A1, “ANTIVIRAL COMPOUNDS AND COMPOSITIONS THEREFROM” (Consejo Superior De Investigaciones Científicas, priority 2023, dated 2025)
# pEC50: −log10 of the molar value.
# Assays:
# [1] = in vitro; details: human
# [2] = tested on: SARS-CoV-2 stock strain NL/2020; experiment: Antiviral activity in A549-ACE2 cells using viral antigen quantitation (SARS-CoV-2 N protein immunofluorescence); type: cell-based; details: Severe acute respiratory syndrome coronavirus 2, MOI 0.005, 48 h; for pEC50: concentration reducing SARS-CoV-2 infection efficiency by 50% vs vehicle; for EC90: concentration reducing SARS-CoV-2 infection efficiency by 90% vs vehicle
SMILES,CC50 [1] [µM],pEC50 [2],EC90 [2] [µM]
"COC(=O)c1cc(-c2ccc(F)c(-c3nn[nH]n3)c2)ccc1NC(C#N)[C@H](Cc1c[nH]c2ccccc12)NC(=O)OC(C)(C)C (mixture of isomers) [Example 21, Methyl 4-(((1RS,2S)-2-((tert-butoxycarbonyl)amino)-1-cyano-3-(1H-indol-3-yl)propyl)amino)-4'-fluoro-3'-(2H-tetrazol-5-yl)-[1,1'-biphenyl]-3-carboxylate]",> 50,5.22,> 50
"COC(=O)c1cc(-c2cc3ccccc3s2)ccc1NC(C#N)[C@H](Cc1c[nH]c2ccccc12)NC(=O)OC(C)(C)C (mixture of isomers) [Example 13, Methyl 5-(benzo[b]thiophen-2-yl)-2-(((1RS,2S)-2-((tert-butoxycarbonyl)amino)-1-cyano-3-(1H-indol-3-yl)propyl)amino)benzoate]",13,5.73,5
"COC(=O)c1cc(-c2c[nH]c3ncccc23)ccc1NC(C#N)[C@H](Cc1c[nH]c2ccccc12)NC(=O)OC(C)(C)C (mixture of isomers) [Example 18, Methyl 2-(((1RS,2S)-2-((tert-butoxycarbonyl)amino)-1-cyano-3-(1H-indol-3-yl)propyl)amino)-5-(1H-pyrrolo[2,3-b]pyridin-3-yl)benzoate]",10,5.22,9
"COC(=O)c1cc(-c2ccc(C(=O)N3CCOCC3)cc2)ccc1NC(C#N)[C@H](Cc1c[nH]c2ccccc12)NC(=O)OC(C)(C)C (mixture of isomers) [Example 8, Methyl 4-(((1RS,2S)-2-((tert-butoxycarbonyl)amino)-1-cyano-3-(1H-indol-3-yl)propyl)amino)-4'-(morpholine-4-carbonyl)-[1,1'-biphenyl]-3-carboxylate]",> 50,6.05,2
"COC(=O)c1cc(-c2ccc3ocnc3c2)ccc1NC(C#N)[C@H](Cc1c[nH]c2ccccc12)NC(=O)OC(C)(C)C (mixture of isomers) [Example 24, Methyl 5-(benzo[d]oxazol-5-yl)-2-(((1RS,2S)-2-((tert-butoxycarbonyl)amino)-1-cyano-3-(1H-indol-3-yl)propyl)amino)benzoate]",> 50,5.22,9
"COC(=O)c1cc(-c2ccc3[nH]ccc3c2)ccc1NC(C#N)[C@H](Cc1c[nH]c2ccccc12)NC(=O)OC(C)(C)C (mixture of isomers) [Example 9, Methyl 2-(((1RS,2S)-2-((tert-butoxycarbonyl)amino)-1-cyano-3-(1H-indol-3-yl)propyl)amino)-5-(1H-indol-5-yl)benzoate]",50,> 6.40,5
"COC(=O)c1cc(-c2ccc3c(ccn3C(=O)OC(C)(C)C)c2)ccc1NC(C#N)[C@H](Cc1c[nH]c2ccccc12)NC(=O)OC(C)(C)C (mixture of isomers) [Example 19, tert-Butyl 5-(4-(((1RS,2S)-2-((tert-butoxycarbonyl)amino)-1-cyano-3-(1H-indol-3-yl)propyl)amino)-3-(methoxycarbonyl)phenyl)-1H-indole-1-carboxylate]",> 50,5.22,31
"COC(=O)c1cc(-c2ccc3[nH]cnc3c2)ccc1NC(C#N)[C@H](Cc1c[nH]c2ccccc12)NC(=O)OC(C)(C)C (mixture of isomers) [Example 15, Methyl 5-(1H-benzo[d]imidazol-5-yl)-2-(((1RS,2S)-2-((tert-butoxycarbonyl)amino)-1-cyano-3-(1H-indol-3-yl)propyl)amino)benzoate]",50,6.00,4
